This is an account of results in PubChem BioAssay (NCI).

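Five compound concentrations were applied to cells in 96-well plates for 48 hours; endpoints were derived by simple linear interpolation of the resulting dose-response curve. At the TGI there is no net growth.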

Test systems include M14 melanoma; MDA-MB-435; DU-145 prostate; 786-0 renal; HOP-92 NSCLC; HCT-15 colon; ACHN renal; OVCAR-4 ovarian; MCF7 breast; OVCAR-3 ovarian; HL-60(TB) leukemia; MALME-3M melanoma; KM12 colon; CCRF-CEM leukemia; BT-549 breast; OVCAR-8 ovarian; NCI-H226 lung; SK-MEL-2 melanoma.
Common to all, as to assay: NCI tumour cell line growth inhibition, 48 h

On to `CC1(c2ccc(F)cc2)CC(c2ccc(F)cc2)=C(C#N)C(=C(C#N)C#N)N1` (centres undefined), for which the TGI with M14 melanoma was determined as 35.6 µM; in the assay with MDA-MB-435 it was 32 µM; in the assay on DU-145 prostate, 28.5 µM; in the assay with 786-0 renal, 29.3 µM; in the assay with HOP-92 NSCLC, 34.9 µM; in the assay with HCT-15 colon, 31.7 µM. The TGI in the assay with ACHN renal amounted to 30.2 µM; with OVCAR-4 ovarian it was 31.3 µM; in the assay on MCF7 breast, 32.5 µM; in the assay with OVCAR-3 ovarian it was 19.4 µM; with HL-60(TB) leukemia, 30.7 µM; in the assay on MALME-3M melanoma, 37.2 µM. Moreover, the TGI in the assay on KM12 colon came to 30.1 µM; in the assay with CCRF-CEM leukemia it was 64.5 µM; with BT-549 breast it was 53 µM; with OVCAR-8 ovarian, 54 µM; in the assay on NCI-H226 lung, 82.1 µM; in the assay with SK-MEL-2 melanoma, 34.4 µM.

`COC1=C2CC(C)CC(OC)[C@@H](OC(=O)CCN)[C@H](C)/C=C(\C)C(OC(N)=O)C(OC)/C=C\C=C(/C)C(=O)NC(=CC1=O)C2=O` (some centres undefined): the TGI in the assay on M14 melanoma turned out to be 19.5 µM; in the assay with MDA-MB-435 it was 6.96 µM; in the assay with DU-145 prostate it was 20.8 µM; with 786-0 renal, 14.2 µM; in the assay on HOP-92 NSCLC, 2.05 µM; with HCT-15 colon it was 13.8 µM. The TGI in the assay with ACHN renal came to 16 µM; with OVCAR-4 ovarian, 12.6 µM; in the assay on MCF7 breast it was 2.03 µM; in the assay with OVCAR-3 ovarian, 8.19 µM; in the assay with HL-60(TB) leukemia, 0.757 µM; in the assay on MALME-3M melanoma it was 16.3 µM. For the same compound, the TGI in the assay on KM12 colon came out at 8.36 µM; in the assay with CCRF-CEM leukemia, 1.49 µM; in the assay with BT-549 breast, 16.9 µM; in the assay with OVCAR-8 ovarian it was 15.5 µM; in the assay with NCI-H226 lung, 40.6 µM; in the assay on SK-MEL-2 melanoma, 22.7 µM.

With `CCOc1ccc(N=NC2C(=O)N(C(=O)CC(=O)Nc3ccccc3OC)N=C2C)cc1` (centres undefined), the TGI in the assay with M14 melanoma is > 100 µM; in the assay on MDA-MB-435, 4.12 µM; with DU-145 prostate, > 100 µM; in the assay on 786-0 renal, > 57.3 µM; in the assay with HOP-92 NSCLC it was > 50.6 µM; with HCT-15 colon, > 100 µM. For the same compound, the TGI in the assay on ACHN renal was > 100 µM; in the assay with OVCAR-4 ovarian, > 100 µM; with MCF7 breast, > 100 µM; in the assay with OVCAR-3 ovarian, > 100 µM; with HL-60(TB) leukemia it was 22.5 µM; with MALME-3M melanoma, > 100 µM. The TGI with KM12 colon is > 100 µM; in the assay on CCRF-CEM leukemia, > 100 µM; in the assay on BT-549 breast, > 48.4 µM; in the assay with OVCAR-8 ovarian, > 100 µM; with NCI-H226 lung, > 100 µM; in the assay on SK-MEL-2 melanoma it was > 58.7 µM.

As for `CSc1c(C(=O)Nc2ccc(Cl)cc2)c(N)nn1-c1ccccc1`, the TGI with M14 melanoma is > 100 µM; in the assay on MDA-MB-435 it was > 100 µM; with DU-145 prostate it was > 100 µM; with 786-0 renal, > 43.2 µM; in the assay with HOP-92 NSCLC, > 100 µM; in the assay with HCT-15 colon, > 100 µM. The TGI with ACHN renal is > 100 µM; with OVCAR-4 ovarian, > 23.8 µM; with MCF7 breast, > 100 µM; with OVCAR-3 ovarian, > 100 µM; in the assay on HL-60(TB) leukemia, > 100 µM; in the assay with MALME-3M melanoma, > 100 µM. Also, the TGI with KM12 colon, with CCRF-CEM leukemia, with BT-549 breast, with OVCAR-8 ovarian, in the assay on NCI-H226 lung and in the assay on SK-MEL-2 melanoma was > 100 µM throughout.

With `CC(C)=CCC[C@@H](C)C1=C(O)C(Nc2ccccc2Br)=C(C)C(=O)C1=O`, the TGI is 29.8 µM in the assay on M14 melanoma; > 65.7 µM in the assay on MDA-MB-435; 20.7 µM with DU-145 prostate; 51.2 µM with 786-0 renal; 30.8 µM in the assay on HOP-92 NSCLC; 22.9 µM in the assay on HCT-15 colon. Moreover, the TGI in the assay with ACHN renal was > 60.2 µM; in the assay on OVCAR-4 ovarian, > 100 µM; in the assay with MCF7 breast it was 39.7 µM; in the assay with OVCAR-3 ovarian, 35.6 µM; with HL-60(TB) leukemia, 5.52 µM; in the assay with MALME-3M melanoma it was 26 µM. Moreover, the TGI with KM12 colon came to 32.1 µM; with CCRF-CEM leukemia it was 12.7 µM; with BT-549 breast it was 50.1 µM; with OVCAR-8 ovarian it was 73 µM; in the assay on NCI-H226 lung it was 34.2 µM; with SK-MEL-2 melanoma, 41.9 µM.

Take `CCc1n[nH]c(=S)n1/N=C\c1ccc(-c2ccccc2Cl)o1`: the TGI was > 100 µM in the assay on M14 melanoma; 48.4 µM in the assay on MDA-MB-435; > 100 µM in the assay on DU-145 prostate; 86.6 µM in the assay on 786-0 renal; > 100 µM in the assay with HOP-92 NSCLC; 83.3 µM with HCT-15 colon. The TGI is > 100 µM with ACHN renal; > 100 µM in the assay on OVCAR-4 ovarian; > 100 µM in the assay with MCF7 breast; > 100 µM in the assay with OVCAR-3 ovarian; 68 µM in the assay on HL-60(TB) leukemia; > 100 µM with MALME-3M melanoma. Further, the TGI with KM12 colon is > 100 µM; in the assay with CCRF-CEM leukemia, > 100 µM; with BT-549 breast it was 66.6 µM; in the assay on OVCAR-8 ovarian it was 61.7 µM; with NCI-H226 lung, 41.6 µM; with SK-MEL-2 melanoma, 98 µM.

For the compound `O=C(O)CN1CCNCCN(CP(=O)(O)O)CC1`, the TGI was > 100 µM with M14 melanoma; > 100 µM in the assay on MDA-MB-435; > 100 µM in the assay with DU-145 prostate; > 29.2 µM with 786-0 renal; > 100 µM in the assay on HOP-92 NSCLC; > 100 µM in the assay with HCT-15 colon. Further, the TGI in the assay with ACHN renal is > 100 µM; with OVCAR-4 ovarian it was > 100 µM; with MCF7 breast it was > 100 µM; in the assay on OVCAR-3 ovarian it was > 100 µM; in the assay with HL-60(TB) leukemia, 8.41 µM; in the assay on MALME-3M melanoma, > 100 µM. For the same compound, the TGI was > 100 µM in the assay with KM12 colon; > 100 µM in the assay with CCRF-CEM leukemia; > 100 µM in the assay on BT-549 breast; > 22.9 µM with OVCAR-8 ovarian; > 100 µM in the assay with NCI-H226 lung; > 100 µM in the assay on SK-MEL-2 melanoma.

`COc1ccc(NC(=O)CC(=O)N2N=C(N3CCCCC3)CC2c2ccccc2)cc1` (centres undefined): the TGI in the assay with M14 melanoma, in the assay with MDA-MB-435, in the assay with DU-145 prostate, in the assay with 786-0 renal, in the assay with HOP-92 NSCLC and in the assay with HCT-15 colon was > 100 µM each time. The TGI in the assay with ACHN renal, with OVCAR-4 ovarian, with MCF7 breast, with OVCAR-3 ovarian, in the assay on HL-60(TB) leukemia and in the assay on MALME-3M melanoma was > 100 µM throughout. The TGI in the assay with KM12 colon, in the assay on CCRF-CEM leukemia, in the assay with BT-549 breast, with OVCAR-8 ovarian, with NCI-H226 lung and in the assay on SK-MEL-2 melanoma was > 100 µM in each case.

In the case of `Cc1ccccc1C1CC(=O)CC(c2ccccc2C)C12C(=O)NC(=O)NC2=O` (centres undefined), the TGI in the assay with M14 melanoma, in the assay with MDA-MB-435, in the assay with DU-145 prostate, with 786-0 renal, in the assay on HOP-92 NSCLC and in the assay on HCT-15 colon was > 100 µM in each case. Also, the TGI in the assay with ACHN renal, in the assay on OVCAR-4 ovarian, in the assay with MCF7 breast, in the assay on OVCAR-3 ovarian, with HL-60(TB) leukemia and in the assay with MALME-3M melanoma was > 100 µM throughout. The TGI with KM12 colon, in the assay with CCRF-CEM leukemia, in the assay on BT-549 breast, in the assay on OVCAR-8 ovarian, in the assay on NCI-H226 lung and in the assay with SK-MEL-2 melanoma was > 100 µM each time.

For the compound `CCCCON1C[C@@H](O)C(O)[C@@H](O)C1` (some centres undefined), the TGI in the assay with M14 melanoma, in the assay on MDA-MB-435, in the assay on DU-145 prostate, with 786-0 renal, in the assay with HOP-92 NSCLC and in the assay with HCT-15 colon was > 100 µM each time. The TGI in the assay with ACHN renal, in the assay with OVCAR-4 ovarian, in the assay on MCF7 breast, in the assay on OVCAR-3 ovarian, with HL-60(TB) leukemia and in the assay with MALME-3M melanoma was > 100 µM throughout. The TGI in the assay with KM12 colon, with CCRF-CEM leukemia, with BT-549 breast, with OVCAR-8 ovarian, in the assay with NCI-H226 lung and in the assay on SK-MEL-2 melanoma was > 100 µM throughout.

Turning to `CN(NC(=O)c1ccco1)C1=NCCN1`, the TGI with M14 melanoma, in the assay with MDA-MB-435, in the assay with DU-145 prostate, in the assay on 786-0 renal, in the assay with HOP-92 NSCLC and in the assay on HCT-15 colon was > 100 µM each time. Moreover, the TGI with ACHN renal, in the assay with OVCAR-4 ovarian, with MCF7 breast, with OVCAR-3 ovarian, in the assay on HL-60(TB) leukemia and in the assay on MALME-3M melanoma was > 100 µM throughout. For the same compound, the TGI in the assay with KM12 colon, in the assay on CCRF-CEM leukemia, in the assay with BT-549 breast, in the assay with OVCAR-8 ovarian, in the assay on NCI-H226 lung and in the assay with SK-MEL-2 melanoma was > 100 µM each time.

Consider `COc1cc(N(CCC#N)CCC#N)ccc1/C=C1\SC(=S)NC1=O`, for which the TGI in the assay with M14 melanoma, with MDA-MB-435, in the assay on DU-145 prostate, in the assay on 786-0 renal, in the assay with HOP-92 NSCLC and in the assay on HCT-15 colon was > 100 µM in each case. Moreover, the TGI in the assay with ACHN renal, in the assay on OVCAR-4 ovarian, in the assay with MCF7 breast, in the assay with OVCAR-3 ovarian, in the assay with HL-60(TB) leukemia and in the assay with MALME-3M melanoma was > 100 µM throughout. For the same compound, the TGI in the assay on KM12 colon, in the assay with CCRF-CEM leukemia, with BT-549 breast, in the assay with OVCAR-8 ovarian, in the assay with NCI-H226 lung and in the assay with SK-MEL-2 melanoma was > 100 µM throughout.

In the case of `O=C1/C(=C/c2cccnc2)C(n2cccc2)c2c(Br)sc(Br)c21` (centres undefined), the TGI turned out to be 4.85 µM in the assay with M14 melanoma; 3.42 µM with MDA-MB-435; 3.53 µM in the assay on DU-145 prostate; 6.17 µM in the assay with 786-0 renal; 4.64 µM with HOP-92 NSCLC; 4.96 µM in the assay with HCT-15 colon. For the same compound, the TGI with ACHN renal was determined as 7.69 µM; in the assay on OVCAR-4 ovarian it was 3.83 µM; in the assay on MCF7 breast, 4.02 µM; with OVCAR-3 ovarian, 3.31 µM; with HL-60(TB) leukemia, 5.57 µM; with MALME-3M melanoma, 10.7 µM. Further, the TGI was 8.45 µM with KM12 colon; 10.1 µM with CCRF-CEM leukemia; 37.6 µM with BT-549 breast; 4.81 µM in the assay on OVCAR-8 ovarian; > 100 µM in the assay on NCI-H226 lung; 4.63 µM in the assay with SK-MEL-2 melanoma.
